Measured values from patent US11214548B2, “Cannabinoid receptor modulators” (priority 2009, dated 2022).

Experiments:
[1] = test system: hypersensitivity following ligation of spinal nerves; details: rats, cited from earlier work
acute and chronic pain = details: animal studies; cited from earlier work
RPE cells = details: cited from earlier work
vagus nerve preparations = details: guinea pig and human vagus nerve preparations in vitro; cited from earlier work
[2] = test system: Streptozotocin-Induced Painful Diabetic Peripheral Neuropathy (PDPN) Model; test: Streptozotocin-induced painful diabetic peripheral neuropathy (PDPN) model; type: in vivo, male Sprague-Dawley rats; details: 10 mg/kg orally in 0.5% methylcellulose; 1, 4 and 6 hours post-dosing, FIG. 17 and FIG. 18
Protocol: Example 12: Streptozotocin-Induced Painful Diabetic Peripheral Neuropathy (PDPN) Model
Male Sprague-Dawley rats were injected intraperitoneally with 50 mg/kg of streptozotocin (STZ) in sodium citrate buffer. 10% sucrose water was provided ad libitum for the first 48 hours post-STZ followed by regular drinking water. Rats were monitored once weekly for blood glucose levels and body weights. Development of tactile allodynia over time was analyzed using Von Frey filaments and a 50% withdrawal threshold was determined using Dixon's up-down procedure. […] Tactile allodynia was evaluated at 1, 4 and 6 hours post-dosing.

[3] = test system: allergic contact dermatitis; details: mouse, injection; cited from earlier work
EAE = EAE mouse model; cited from earlier work
atherosclerosis = details: cited from earlier work

COc1ccc(C(=O)c2c(C)n(CCN3CCOCC3)c3cc(I)ccc23)cc1 [AM630]
inhibition of the AM1241 effect on tactile and thermal hypersensitivity [1]: inhibited

CCCCCCC(C)(C)c1ccc([C@@H]2C[C@H](O)CC[C@H]2CCCO)c(O)c1 [CP55,940]
effect against acute and chronic pain from chemical, mechanical, and thermal pain stimuli (acute and chronic pain): effective
protection of RPE cells from oxidative damage (RPE cells): significantly protects
capsaicin-, PGE2- and hypertonic saline-induced depolarization (vagus nerve preparations): reduces

CC(C)(C)[C@@H](CO)NC(=O)c1nn(-c2c[n+]([O-])ccn2)c2c1C[C@@H]1C[C@H]21 [Compound 699, (1aS,5aS)-2-(4-Oxy-pyrazin-2-yl)-1a,2,5,5a-tetrahydro-1H-2,3-diaza-cyclopropa[a]pentalene-4-carboxylic Acid ((S)-1-Hydroxymethyl-2,2-dimethyl-propyl)-amide]
analgesic efficacy (tactile allodynia, 50% withdrawal threshold) [2]: robust and sustained analgesic efficacy over 6 hours

CC(C)(NC(=O)c1nn(-c2c[n+]([O-])ccn2)c2c1C[C@@H]1C[C@H]21)C(F)(F)F [Compound 919, (1aS,5aS)-2-(4-Oxy-pyrazin-2-yl)-1a,2,5,5a-tetrahydro-1H-2,3-diaza-cyclopropa[a]pentalene-4-carboxylic acid (2,2,2-trifluoro-1,1-dimethyl-ethyl)-amide]
analgesic efficacy (tactile allodynia, 50% withdrawal threshold) [2]: robust and sustained analgesic efficacy over 6 hours

Cc1c(C(=O)NN2CCCCC2)nn(-c2ccc(Cl)cc2Cl)c1-c1ccc(Cl)cc1 [Compound S141716A, S141716A]
cutaneous inflammation and the pruritis (itch) associated with it [3]: exacerbates

COc1ccc2c(c1)c(CCN1CCOCC1)c(C)n2C(=O)c1cccc(Cl)c1Cl [GW405833]
hypersensitivity to mechanical stimuli ([1]; administered systemically): significantly reverses

CCCn1c(C)c(C(=O)c2cccc3ccccc23)c2ccccc21 [JWH015]
protection of RPE cells from oxidative damage (RPE cells): comparable protection

CCCCCc1cc(O)c2c(c1)OC(C)(C)[C@@H]1CCC(C)=C[C@@H]21 [THC]
effect against acute and chronic pain from chemical, mechanical, and thermal pain stimuli (acute and chronic pain): effective
severity of clinical disease (EAE): significantly inhibits
cutaneous inflammation and the pruritis (itch) associated with it [3]: reduces
progression of atherosclerosis (atherosclerosis; ApoE knockout mice): reduces

SR144528
blockade of the WIN 55212-2 effect on leukocyte rolling and adhesion (EAE): blocked
cutaneous inflammation and the pruritis (itch) associated with it [3]: exacerbates
blockade of the THC effect on atherosclerosis (atherosclerosis; in vitro and in vivo): completely blocks
